Measured values: ChEMBL document CHEMBL1141117, “Unambiguous synthesis and prophylactic antimalarial activities of imidazolidinedione derivatives” (J Med Chem, 2005)
In brackets after ≈: the same amount, converted by molar mass.

Key:
Plasmodium yoelii [1] = experiment: Prophylactic activity in infected mouse at 40 mg/kg peroral administration, expressed as no of organisms survived; Total organisms= 5; settings: route oral
Plasmodium yoelii [2] = experiment: Prophylactic activity in infected mouse at 160 mg/kg peroral administration, expressed as no of organisms survived; Total organisms= 5; settings: route oral
Plasmodium yoelii [3] = experiment: Prophylactic activity in infected mouse at 10 mg/kg peroral administration, expressed as no of organisms survived; Total organisms= 5; settings: route oral
Plasmodium yoelii [4] = experiment: In vitro antimalarial activity dosed at 10 mg/kg against exoerythrocytic Plasmodium yoelii in mice (Mus musculus) hepatocytes; settings: Hepatocyte
Plasmodium yoelii [5] = experiment: In vitro antimalarial activity dosed at 1 mg/kg against exoerythrocytic Plasmodium yoelii in mice (Mus musculus) hepatocytes; settings: Hepatocyte
Plasmodium yoelii [6] = experiment: Prophylactic activity in infected mouse at 5 mg/kg peroral administration, expressed as no of organisms survived; Total organisms= 5; settings: route oral
Plasmodium yoelii [7] = experiment: Prophylactic activity in infected mouse at 2.5 mg/kg peroral administration, expressed as no of organisms survived; Total organisms= 5; settings: route oral
Plasmodium yoelii [8] = experiment: Prophylactic activity in infected mouse at 1.25 mg/kg peroral administration, expressed as no of organisms survived; Total organisms= 5; settings: route oral
Plasmodium yoelii [9] = experiment: Prophylactic activity in infected mouse at 80 mg/kg peroral administration, expressed as no of organisms survived; Total organisms= 5; settings: route oral
Plasmodium yoelii [10] = experiment: Prophylactic activity in infected mouse at 20 mg/kg peroral administration, expressed as no of organisms survived; Total organisms= 5; settings: route oral
Plasmodium falciparum [11] = experiment: (§1) In vitro antimalarial activity for Plasmodium falciparum D6; format: functional
Plasmodium falciparum [12] = experiment: (§2) In vitro antimalarial activity for Plasmodium falciparum W2; format: functional
Plasmodium falciparum [13] = experiment: (§3) In vitro antimalarial activity for Plasmodium falciparum TM91C235; format: functional
Plasmodium falciparum [14] = experiment: as §1; format: functional, organism-based
Plasmodium falciparum [15] = experiment: as §3; format: functional, organism-based
Plasmodium falciparum [16] = experiment: as §2; format: functional, organism-based
Plasmodium yoelii [17] = experiment: Prophylactic activity in infected mouse at 160 mg/kg peroral administration, expressed as no of organisms survived; Not dosed
Plasmodium yoelii [18] = experiment: Prophylactic activity in infected mouse at 160 mg/kg peroral administration, expressed as no of organisms survived; Toxicity death
Plasmodium yoelii [19] = experiment: Prophylactic activity in infected mouse at 1.23 mg/kg peroral administration, expressed as no of organisms survived; Total organisms= 5; settings: route oral

Row | SMILES | Activity (Plasmodium yoelii [1]) | Activity (Plasmodium yoelii [2]) | Activity (Plasmodium yoelii [3]) | inhibition in vivo at 10 mg/kg (Plasmodium yoelii [4]) [%] | inhibition in vivo at 1 mg/kg (Plasmodium yoelii [5]) [%] | Activity (Plasmodium yoelii [6]) | Activity (Plasmodium yoelii [7]) | further results
1 | COc1cc(NC(C)CCCN)c2ncccc2c1 (centres undefined) [PRIMAQUINE] | 2 | 5 | 0 |  |  |  |  | 
2 | CC(C)N1C(=O)C(=O)N=C1N/C(=N\C(=O)OCc1ccccc1)Nc1ccc(Cl)c(Cl)c1 | 0 | 0 |  | 43 | 25 |  |  | 
3 | CC(C)/N=C(/NC(=O)OC(C)(C)C)NC1=NC(=O)C(=O)N1c1ccc(Cl)c(Cl)c1 | 4 | 5 |  |  |  | 4 | 2 | Activity (Plasmodium yoelii [8]): 2
4 | CCO[C@H]1O[C@@H]2O[C@@]3(C)CC[C@H]4[C@H](C)CC[C@@H]([C@H]1C)[C@@]24OO3 [ARTEMOTIL] | 0 | 0 | 0 |  |  |  |  | 
5 | CCOC(=O)N/C(=N/C(C)C)NC1=NC(=O)C(=O)N1c1ccc(Cl)c(Cl)c1 | 5 |  | 1 | 98 | 10 | 1 |  | Activity (Plasmodium yoelii [9]): 5; Activity (Plasmodium yoelii [10]): 3
6 | CCN(CC)CCCC(C)Nc1ccnc2cc(Cl)ccc12 (centres undefined) [CHLOROQUINE] |  |  |  |  |  |  |  | IC90 (Plasmodium falciparum [11]): 0.00533 mg/L (≈ 0.0167 µM); IC90 (Plasmodium falciparum [12]): 0.199 mg/L (≈ 0.621 µM); IC90 (Plasmodium falciparum [13]): 0.0552 mg/L (≈ 0.173 µM)
7 | CC(C)N1C(=O)C(=O)N=C1NC(=N)Nc1ccc(Cl)c(Cl)c1 |  |  |  | 91 | 50 |  |  | IC90 (Plasmodium falciparum [11]): 12.1 mg/L (≈ 35.3 µM); IC50 (Plasmodium falciparum [14]): 2.97 mg/L (≈ 8.68 µM); IC50 (Plasmodium falciparum [15]): 2.59 mg/L (≈ 7.57 µM); IC90 (Plasmodium falciparum [12]): 10.9 mg/L (≈ 31.8 µM); IC90 (Plasmodium falciparum [13]): 11.3 mg/L (≈ 33.2 µM); IC50 (Plasmodium falciparum [16]): 2.66 mg/L (≈ 7.79 µM)
8 | C=CCCOC(=O)N/C(=N/C(C)C)NC1=NC(=O)C(=O)N1c1ccc(Cl)c(Cl)c1 |  |  |  |  |  |  |  | Activity (Plasmodium yoelii [17]): Not Dosed
9 | COc1cc(C)c2c(Oc3cccc(C(F)(F)F)c3)c(OC)cc(NC(C)CCCN)c2n1 (centres undefined) [TAFENOQUINE] | 5 |  | 5 | 96 | 39 | 5 | 3 | Activity (Plasmodium yoelii [18]): Toxicity death
10 | CC(C)COC(=O)/N=C(\NC1=NC(=O)C(=O)N1C(C)C)Nc1ccc(Cl)c(Cl)c1 | 2 | 5 | 0 |  |  |  |  | 
11 | CC(C)/N=C(/NC(=O)OCc1ccccc1)NC1=NC(=O)C(=O)N1c1ccc(Cl)c(Cl)c1 | 2 | 3 | 2 | 87 | 6.7 | 3 | 0 | 
12 | CC(C)COC(=O)N/C(=N/C(C)C)NC1=NC(=O)C(=O)N1c1ccc(Cl)c(Cl)c1 | 5 | 5 | 5 |  |  | 5 | 1 | Activity (Plasmodium yoelii [19]): 0
13 | CC(C)N1C(=O)C(=O)N=C1N/C(=N\C(=O)OC(C)(C)C)Nc1ccc(Cl)c(Cl)c1 | 2 | 5 | 0 | 99 | 69 |  |  | 
14 | CCOC(=O)/N=C(\NC1=NC(=O)C(=O)N1C(C)C)Nc1ccc(Cl)c(Cl)c1 | 4 | 5 | 2 | 99 | 63 |  | 0 | 
15 | CC(C)N1C(=O)C(=O)N=C1N/C(=N\C(=O)OCCOCc1ccccc1)Nc1ccc(Cl)c(Cl)c1 | 0 | 1 | 0 |  |  |  |  | 
16 | CCCCCCOC(=O)/N=C(\NC1=NC(=O)C(=O)N1C(C)C)Nc1ccc(Cl)c(Cl)c1 | 2 | 1 | 0 |  |  |  |  | 
17 | O[C@@H](c1cc(C(F)(F)F)nc2c(C(F)(F)F)cccc12)C1CCCCN1 (some centres undefined) [MEFLOQUINE] |  |  |  |  |  |  |  | IC90 (Plasmodium falciparum [11]): 0.0134 mg/L (≈ 0.0355 µM); IC90 (Plasmodium falciparum [12]): 0.00401 mg/L (≈ 0.0106 µM); IC90 (Plasmodium falciparum [13]): 0.044 mg/L (≈ 0.116 µM)
18 | Cc1oc(=O)oc1COC(=O)/N=C(\NC1=NC(=O)C(=O)N1C(C)C)Nc1ccc(Cl)c(Cl)c1 | 2 | 3 | 2 |  |  |  | 0 | 
19 | C=CCCOC(=O)/N=C(\NC1=NC(=O)C(=O)N1C(C)C)Nc1ccc(Cl)c(Cl)c1 | 0 | 1 | 0 |  |  |  |  | 
20 | CCCCCCOC(=O)N/C(=N/C(C)C)NC1=NC(=O)C(=O)N1c1ccc(Cl)c(Cl)c1 | 3 |  | 2 |  |  | 2 |  | Activity (Plasmodium yoelii [9]): 5; Activity (Plasmodium yoelii [10]): 4
